{"source": "patent US7427469B2", "about": "“Method of treating cytomegalovirus with DC-SIGN blockers” (priority 2002, dated 2008)", "key": {"DC-SIGNR": {"target": "T1, DC-SIGNR (Homo sapiens, UniProt Q9H2X3)", "T1 construct": "expressed in transfected cells; host or cells: HEK 293T, transient transfection; cDNA a gift from Dr R. W. Doms", "T1 sequence (Q9H2X3 whole entry)": "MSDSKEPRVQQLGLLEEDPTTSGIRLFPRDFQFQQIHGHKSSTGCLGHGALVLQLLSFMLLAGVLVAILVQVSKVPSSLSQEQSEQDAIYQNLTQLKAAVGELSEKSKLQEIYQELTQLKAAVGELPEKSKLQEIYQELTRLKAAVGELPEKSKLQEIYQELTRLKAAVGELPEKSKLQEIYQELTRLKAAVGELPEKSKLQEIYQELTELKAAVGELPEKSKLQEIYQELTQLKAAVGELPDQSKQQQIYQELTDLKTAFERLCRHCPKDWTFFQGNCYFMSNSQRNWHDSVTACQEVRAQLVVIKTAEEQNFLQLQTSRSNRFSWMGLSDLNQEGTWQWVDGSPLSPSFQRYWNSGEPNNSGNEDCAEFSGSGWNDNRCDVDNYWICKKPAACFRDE", "type": "binding", "conditions": "data not shown"}, "DC-SIGN [1]": {"target": "T2, DC-SIGN (Homo sapiens, UniProt Q9NNX6)", "T2 sequence (Q9NNX6 1-404)": "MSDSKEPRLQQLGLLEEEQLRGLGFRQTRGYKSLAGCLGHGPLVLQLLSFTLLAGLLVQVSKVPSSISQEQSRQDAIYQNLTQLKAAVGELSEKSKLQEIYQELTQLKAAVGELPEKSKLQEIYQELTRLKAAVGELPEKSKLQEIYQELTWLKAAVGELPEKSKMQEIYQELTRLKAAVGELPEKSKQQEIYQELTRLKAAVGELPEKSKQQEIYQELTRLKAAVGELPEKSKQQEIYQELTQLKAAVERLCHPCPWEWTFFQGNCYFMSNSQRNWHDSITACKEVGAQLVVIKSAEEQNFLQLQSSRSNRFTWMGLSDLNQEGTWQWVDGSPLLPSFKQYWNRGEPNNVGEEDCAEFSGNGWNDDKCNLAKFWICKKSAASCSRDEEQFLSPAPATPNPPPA", "type": "binding", "parameters": "expressed in transfected cells", "conditions": "data not shown"}, "CMV": {"system": "CMV", "assay": "CMV trans-infection assay: virus-pulsed DC-SIGN+ cells co-cultured with MRC-5 cells", "type": "cell-based, Human Cytomegalovirus", "conditions": "MD-DC, DC-SIGN+ THP-1 or DC-SIGN+ HeLa cells pre-incubated before pulse with CMV", "procedure": "For trans-infection experiments, cells were incubated with viral suspensions (CMV, VZV or HSV-1, MOI=1) for 2 hr, at 37° C. Thereafter, unbound viral particles were removed by extensive washes and cells were co-cultured with sub-confluent MRC-5 or U373 MG cell monolayers. After 24 to 72 hr, infected MRC-5 or U373-MG cells were fixed, permeabilized and stained with specific mAbs directed against IEA- or EA-CMV (mAbs E13 and 2A2, respectively), VZV (mAb 2013) or HSV (mAb CHA-437) (Argen Biosoft, Varilhes, France). When indicated MD-DC or THP-1 (parental or DC-SIGN^+) cells were incubated with EGTA (5 mM), mannan or anti-DC-SIGN (1B10.2.6 mAb) for 30 minutes at 4° C. prior challenge with infectious preparations. Infection by ADGFP strain was assessed by counting GFP-expressing cells at day 3. For long term infectivity experiments DC-SIGN^+ or parental THP-1 cells were incubated with ADGFP (MOI=1) for 4 hr at 37° C. After extensive washes, infected cells were incubated at 37° C. and an aliquot of these cells was added to a sub-confluent MRC-5 cell culture every 2 days during the assay.\nMD-DC, THP-1 or HeLa expressing DC-SIGN were incubated with a mutant CMV strain encoding a GFP (ADGFP) (Borst et al., 2001). […]\nThe capacity of DC-SIGN to enhance infectiveness of CMV was assessed. […]"}, "DC-SIGN [2]": {"target": "T2, DC-SIGN", "assay": "HIV-1 gp120 binding competition assay on DC-SIGN+ THP-1 cells", "parameters": "expressed in transfected cells; host or cells: THP-1 (gift of Dr. D. R. Littman; Kwon et al., 2002)", "conditions": "DC-SIGN+ THP-1 cells pre-treated with competitors (20 μg/ml)", "description": "DC-SIGN^+ THP-1 cells were washed two times, resuspended in ice-cold binding buffer (1 mM CaCl2, 2 mM MgCl2 and 0.1% Bovine Serum Albumin in PBS) at 10^6 cells/mL and pre-treated or not for 15 minutes with competitors (20 μg/ml). Thereafter, recombinant biotinylated CXCR4-tropic (MN isolate) HIV-1 gp120 (2 μg/ml; Immunodiagnostics Inc., Woburg, Mass.) was added for 30 minutes at 4° C.\nIn this assay we pre-incubated DC-SIGN^+ THP-1 cells with purified HIV-1 gp120, CMV gB, HSV-1 gB, VZV gB, HSV-1 gD or VZV gE. Following exposure to each single envelope glycoprotein, cells were incubated with biotinylated HIV-1 gp120, which binding to DC-SIGN^+ THP-1 cells was evidenced by immunostaining and FACS analysis."}, "DC-SIGN [3]": {"target": "T2, DC-SIGN", "assay": "Binding of CMV virions to DC-SIGN-expressing cells (flow cytometry, anti-CMV gB mAb)", "type": "cell-based", "parameters": "expressed in transfected cells; host or cells: THP-1 (gift of Dr. D. R. Littman; Kwon et al., 2002)", "conditions": "pre-incubation of cells with the substance", "procedure": "The capacity of CMV to bind DC-SIGN was investigated. Parental and DC-SIGN^+ THP-1 cells, or immature monocyte-derived DC (MD-DC) were incubated on ice with increasing concentrations of CMV and the presence of cell-bound virions was quantified by flow cytometry using a mAb directed against the CMV gB."}}}
{"compound": "O=C(O)CN(CCOCCOCCN(CC(=O)O)CC(=O)O)CC(=O)O", "note": "[EGTA]", "values": [{"measurement": "Binding of HIV-1 gp120 and CMV gB to HEK 293T cells expressing DC-SIGNR", "setting": "DC-SIGNR", "result": "blocked"}, {"measurement": "Binding of HIV-1 gp120 and CMV gB to HEK 293T cells expressing DC-SIGN", "setting": "DC-SIGN [1]", "result": "blocked"}, {"measurement": "Trans-infection of MRC-5 cells / transmission of CMV from DC-SIGN+ cells to MRC-5 cells", "setting": "CMV", "result": "prevented"}]}
{"compound": "mannan", "values": [{"measurement": "Binding of biotinylated HIV-1 gp120 on DC-SIGN (competition)", "setting": "DC-SIGN [2]", "result": "competitive effect"}, {"measurement": "Trans-infection of MRC-5 cells / transmission of CMV from DC-SIGN+ cells to MRC-5 cells", "setting": "CMV", "result": "prevented"}, {"measurement": "CMV virion attachment to cells", "setting": "DC-SIGN [3]", "result": "Abrogation"}]}
